What was measured:
[1] = target: T1, Mitogen-activated protein kinase kinase kinase kinase 2 (Homo sapiens) (UniProt Q12851); test: Inhibition of human GCK/MAP4K2 using myelin basic protein as substrate at 1 uM in presence of 32P-ATP by Hotspot assay relative to control; values are per cent of control
T1 sequence (whole entry): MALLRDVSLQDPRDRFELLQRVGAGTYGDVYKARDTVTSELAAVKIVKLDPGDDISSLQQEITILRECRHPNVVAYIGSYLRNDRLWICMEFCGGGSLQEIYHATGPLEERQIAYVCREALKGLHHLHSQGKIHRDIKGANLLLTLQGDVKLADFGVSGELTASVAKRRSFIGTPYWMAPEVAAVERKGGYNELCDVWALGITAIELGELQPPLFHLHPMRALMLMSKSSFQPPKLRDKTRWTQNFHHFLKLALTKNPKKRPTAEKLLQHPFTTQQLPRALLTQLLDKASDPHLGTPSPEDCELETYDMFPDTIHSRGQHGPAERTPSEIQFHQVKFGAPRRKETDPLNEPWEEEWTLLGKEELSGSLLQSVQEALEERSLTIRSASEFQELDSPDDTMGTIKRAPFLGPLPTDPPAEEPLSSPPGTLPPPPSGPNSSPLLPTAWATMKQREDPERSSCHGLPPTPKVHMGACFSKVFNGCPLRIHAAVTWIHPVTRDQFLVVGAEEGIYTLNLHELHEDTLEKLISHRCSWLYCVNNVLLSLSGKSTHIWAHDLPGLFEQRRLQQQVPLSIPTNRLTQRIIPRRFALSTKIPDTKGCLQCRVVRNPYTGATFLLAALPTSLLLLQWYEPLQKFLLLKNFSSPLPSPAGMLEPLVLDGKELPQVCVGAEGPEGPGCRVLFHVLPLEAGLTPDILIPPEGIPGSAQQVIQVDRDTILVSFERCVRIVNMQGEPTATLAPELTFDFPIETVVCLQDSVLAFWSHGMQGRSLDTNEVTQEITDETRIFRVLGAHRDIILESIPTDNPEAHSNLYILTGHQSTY

[2] = target: Calcium/calmodulin-dependent protein kinase kinase 2 (Homo sapiens) (UniProt Q96RR4); test: Inhibition of human CAMKK2 using myelin basic protein as substrate at 1 uM in presence of 32P-ATP by Hotspot assay relative to control; values are per cent of control
Calcium/calmodulin-dependent protein kinase kinase 2 (Homo sapiens), sequence (Q96RR4 2-588 limits assumed): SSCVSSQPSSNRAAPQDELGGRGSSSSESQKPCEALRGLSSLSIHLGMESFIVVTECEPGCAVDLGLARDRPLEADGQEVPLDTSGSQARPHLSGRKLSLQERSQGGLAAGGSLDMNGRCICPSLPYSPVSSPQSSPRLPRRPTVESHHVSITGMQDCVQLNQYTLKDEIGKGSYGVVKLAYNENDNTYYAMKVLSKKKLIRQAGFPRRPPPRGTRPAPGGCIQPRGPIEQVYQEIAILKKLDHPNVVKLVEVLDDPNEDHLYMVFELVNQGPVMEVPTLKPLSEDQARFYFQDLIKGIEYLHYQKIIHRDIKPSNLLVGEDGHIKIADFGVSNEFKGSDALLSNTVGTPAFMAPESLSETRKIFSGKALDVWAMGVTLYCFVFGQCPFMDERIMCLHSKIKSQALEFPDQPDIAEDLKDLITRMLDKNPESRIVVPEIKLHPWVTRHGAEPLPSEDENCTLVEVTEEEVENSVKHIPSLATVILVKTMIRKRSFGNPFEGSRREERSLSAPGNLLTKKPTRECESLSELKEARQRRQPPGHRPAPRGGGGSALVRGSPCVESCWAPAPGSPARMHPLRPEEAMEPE

[3] = target: T2, Rhodopsin kinase GRK7 (Homo sapiens) (UniProt Q8WTQ7); test: Inhibition of human GRK7 using casein as substrate at 1 uM in presence of 32P-ATP by Hotspot assay relative to control; values are per cent of control
T2 sequence (whole entry): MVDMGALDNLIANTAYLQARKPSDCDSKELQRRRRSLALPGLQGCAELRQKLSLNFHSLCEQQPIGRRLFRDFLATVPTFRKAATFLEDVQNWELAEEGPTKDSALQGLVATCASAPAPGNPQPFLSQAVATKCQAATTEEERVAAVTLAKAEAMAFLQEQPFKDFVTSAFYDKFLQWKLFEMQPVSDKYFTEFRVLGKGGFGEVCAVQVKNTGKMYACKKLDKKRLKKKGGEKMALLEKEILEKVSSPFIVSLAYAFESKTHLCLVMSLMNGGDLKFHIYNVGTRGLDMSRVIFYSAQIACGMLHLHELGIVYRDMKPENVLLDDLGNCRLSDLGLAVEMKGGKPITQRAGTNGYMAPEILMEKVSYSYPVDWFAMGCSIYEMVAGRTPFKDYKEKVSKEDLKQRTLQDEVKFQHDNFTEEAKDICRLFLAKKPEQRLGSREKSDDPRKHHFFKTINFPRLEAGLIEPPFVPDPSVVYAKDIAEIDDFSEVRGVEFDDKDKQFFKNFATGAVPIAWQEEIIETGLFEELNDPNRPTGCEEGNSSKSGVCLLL

[4] = target: Protein kinase C beta type (Homo sapiens) (UniProt P05771); test: Inhibition of human PKCb1 using ERMRPRKRQGSVRRRV as substrate at 1 uM in presence of 32P-ATP by Hotspot assay relative to control; values are per cent of control
Protein kinase C beta type (Homo sapiens), sequence (P05771 2-671 limits assumed): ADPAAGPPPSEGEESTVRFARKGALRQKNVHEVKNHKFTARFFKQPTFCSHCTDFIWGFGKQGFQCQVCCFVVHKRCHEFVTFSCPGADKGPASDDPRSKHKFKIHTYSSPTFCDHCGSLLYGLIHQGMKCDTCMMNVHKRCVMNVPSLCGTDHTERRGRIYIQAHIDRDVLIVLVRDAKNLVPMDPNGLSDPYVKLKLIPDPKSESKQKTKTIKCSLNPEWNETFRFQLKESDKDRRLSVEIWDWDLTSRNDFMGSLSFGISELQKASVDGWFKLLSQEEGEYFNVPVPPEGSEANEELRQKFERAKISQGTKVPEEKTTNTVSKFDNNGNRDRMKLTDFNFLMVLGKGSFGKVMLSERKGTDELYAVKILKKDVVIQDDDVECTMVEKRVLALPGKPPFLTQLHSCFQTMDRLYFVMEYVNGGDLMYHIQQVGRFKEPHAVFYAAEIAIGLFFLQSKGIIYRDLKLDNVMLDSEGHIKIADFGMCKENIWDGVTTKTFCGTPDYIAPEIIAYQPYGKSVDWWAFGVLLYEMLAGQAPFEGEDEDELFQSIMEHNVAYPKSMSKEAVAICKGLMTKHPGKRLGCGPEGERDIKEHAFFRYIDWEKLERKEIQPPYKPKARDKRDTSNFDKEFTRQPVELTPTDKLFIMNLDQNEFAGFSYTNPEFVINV

[5] = target: Calcium/calmodulin-dependent protein kinase type II subunit beta (Homo sapiens) (UniProt Q13554); test: Residual activity of human CAMK2b using KKALRRQETVDAL as substrate at 1 uM in presence of 32P-ATP by Hotspot assay relative to control
Calcium/calmodulin-dependent protein kinase type II subunit beta (Homo sapiens), sequence (Q13554 whole entry): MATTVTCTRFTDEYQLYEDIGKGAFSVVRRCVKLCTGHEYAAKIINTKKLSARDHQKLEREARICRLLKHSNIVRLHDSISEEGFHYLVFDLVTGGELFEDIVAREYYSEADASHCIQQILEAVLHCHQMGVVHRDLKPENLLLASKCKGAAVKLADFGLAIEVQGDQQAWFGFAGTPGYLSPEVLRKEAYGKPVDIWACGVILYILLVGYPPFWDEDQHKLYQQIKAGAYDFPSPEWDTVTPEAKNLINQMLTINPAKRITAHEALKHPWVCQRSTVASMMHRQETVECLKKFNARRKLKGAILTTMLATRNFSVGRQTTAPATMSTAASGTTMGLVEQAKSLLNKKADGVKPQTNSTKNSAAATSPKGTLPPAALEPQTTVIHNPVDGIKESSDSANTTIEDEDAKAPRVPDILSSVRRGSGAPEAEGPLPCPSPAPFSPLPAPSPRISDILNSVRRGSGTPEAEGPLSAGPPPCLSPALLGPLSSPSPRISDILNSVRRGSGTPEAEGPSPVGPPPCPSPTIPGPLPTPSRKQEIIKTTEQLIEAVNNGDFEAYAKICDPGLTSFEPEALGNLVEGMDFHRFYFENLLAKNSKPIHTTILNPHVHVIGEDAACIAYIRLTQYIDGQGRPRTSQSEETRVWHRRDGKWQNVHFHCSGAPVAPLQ

[6] = target: G protein-coupled receptor kinase 6 (Homo sapiens) (UniProt P43250); test: Inhibition of human GRK6 using casein as substrate at 1 uM in presence of 32P-ATP by Hotspot assay relative to control; values are per cent of control
G protein-coupled receptor kinase 6 (Homo sapiens), sequence (P43250 whole entry, looked up): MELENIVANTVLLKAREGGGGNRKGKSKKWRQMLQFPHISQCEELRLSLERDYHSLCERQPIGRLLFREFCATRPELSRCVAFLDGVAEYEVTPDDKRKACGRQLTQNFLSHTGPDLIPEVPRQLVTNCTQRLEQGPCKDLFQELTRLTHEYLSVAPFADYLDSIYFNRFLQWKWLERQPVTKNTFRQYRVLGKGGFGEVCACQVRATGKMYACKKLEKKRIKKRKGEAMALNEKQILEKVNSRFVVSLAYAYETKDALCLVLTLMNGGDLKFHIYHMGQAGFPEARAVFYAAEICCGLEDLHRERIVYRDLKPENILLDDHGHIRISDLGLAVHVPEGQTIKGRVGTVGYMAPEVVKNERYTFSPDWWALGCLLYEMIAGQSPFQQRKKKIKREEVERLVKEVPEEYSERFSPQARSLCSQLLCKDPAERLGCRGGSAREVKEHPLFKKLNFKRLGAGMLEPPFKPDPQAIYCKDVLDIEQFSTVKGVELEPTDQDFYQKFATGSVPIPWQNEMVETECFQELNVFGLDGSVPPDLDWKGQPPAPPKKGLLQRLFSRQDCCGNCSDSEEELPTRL

[7] = target: Death-associated protein kinase 2 (Homo sapiens) (UniProt Q9UIK4); test: Inhibition of human DAPK2 using KKLNRTLSFAEPG as substrate at 1 uM in presence of 32P-ATP by Hotspot assay relative to control; values are per cent of control
Death-associated protein kinase 2 (Homo sapiens), sequence (Q9UIK4 whole entry, looked up): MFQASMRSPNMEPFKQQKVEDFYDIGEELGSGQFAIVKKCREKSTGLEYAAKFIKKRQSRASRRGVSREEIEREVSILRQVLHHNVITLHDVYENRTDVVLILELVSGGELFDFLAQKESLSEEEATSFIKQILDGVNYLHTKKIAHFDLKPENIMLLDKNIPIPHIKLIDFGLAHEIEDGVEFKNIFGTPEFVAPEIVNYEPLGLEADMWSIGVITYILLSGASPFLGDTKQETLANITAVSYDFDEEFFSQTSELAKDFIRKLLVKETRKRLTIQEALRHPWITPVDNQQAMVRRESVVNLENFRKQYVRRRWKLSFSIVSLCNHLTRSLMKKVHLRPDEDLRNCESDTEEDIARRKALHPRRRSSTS

[8] = target: T3, Serine/threonine-protein kinase Nek2 (Homo sapiens) (UniProt P51955); test: Inhibition of human NEK2 using myelin basic protein as substrate at 1 uM in presence of 32P-ATP by Hotspot assay relative to control; values are per cent of control
T3 sequence (whole entry): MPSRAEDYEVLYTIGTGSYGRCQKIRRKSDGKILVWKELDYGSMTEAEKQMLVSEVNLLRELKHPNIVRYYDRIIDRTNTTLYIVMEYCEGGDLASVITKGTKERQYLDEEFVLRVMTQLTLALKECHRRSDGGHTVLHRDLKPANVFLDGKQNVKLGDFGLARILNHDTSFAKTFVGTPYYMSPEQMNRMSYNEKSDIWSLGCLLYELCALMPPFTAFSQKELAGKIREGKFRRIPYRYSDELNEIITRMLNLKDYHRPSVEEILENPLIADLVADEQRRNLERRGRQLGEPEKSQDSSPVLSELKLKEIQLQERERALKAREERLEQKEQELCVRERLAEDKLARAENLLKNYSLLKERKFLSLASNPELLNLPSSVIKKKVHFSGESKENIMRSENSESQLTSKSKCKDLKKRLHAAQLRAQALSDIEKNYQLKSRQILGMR

[9] = target: Insulin-like growth factor 1 receptor (Homo sapiens) (UniProt P08069); test: Inhibition of human IGF1R using KKKSPGEYVNIEFG as substrate at 1 uM in presence of 32P-ATP by Hotspot assay relative to control; values are per cent of control
Insulin-like growth factor 1 receptor (Homo sapiens), sequence (P08069 31-736 limits assumed): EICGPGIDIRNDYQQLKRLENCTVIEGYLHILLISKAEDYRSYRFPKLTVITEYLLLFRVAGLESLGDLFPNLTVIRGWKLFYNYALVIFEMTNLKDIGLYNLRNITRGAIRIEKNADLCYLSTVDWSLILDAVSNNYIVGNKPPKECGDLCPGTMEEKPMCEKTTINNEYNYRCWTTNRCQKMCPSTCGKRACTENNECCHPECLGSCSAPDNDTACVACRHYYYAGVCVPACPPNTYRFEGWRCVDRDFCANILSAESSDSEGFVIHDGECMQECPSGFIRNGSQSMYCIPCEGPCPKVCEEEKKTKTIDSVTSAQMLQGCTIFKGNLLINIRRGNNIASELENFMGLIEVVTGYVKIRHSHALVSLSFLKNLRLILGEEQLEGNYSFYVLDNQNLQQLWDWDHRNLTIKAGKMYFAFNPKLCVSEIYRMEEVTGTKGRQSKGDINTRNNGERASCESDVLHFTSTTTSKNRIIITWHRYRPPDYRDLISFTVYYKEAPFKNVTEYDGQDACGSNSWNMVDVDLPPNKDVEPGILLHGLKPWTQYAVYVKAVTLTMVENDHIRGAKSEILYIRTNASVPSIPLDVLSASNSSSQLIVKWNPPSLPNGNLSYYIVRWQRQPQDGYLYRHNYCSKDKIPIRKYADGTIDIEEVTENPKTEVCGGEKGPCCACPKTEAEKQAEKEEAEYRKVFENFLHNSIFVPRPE
Insulin-like growth factor 1 receptor (Homo sapiens), sequence (P08069 741-1367 limits assumed): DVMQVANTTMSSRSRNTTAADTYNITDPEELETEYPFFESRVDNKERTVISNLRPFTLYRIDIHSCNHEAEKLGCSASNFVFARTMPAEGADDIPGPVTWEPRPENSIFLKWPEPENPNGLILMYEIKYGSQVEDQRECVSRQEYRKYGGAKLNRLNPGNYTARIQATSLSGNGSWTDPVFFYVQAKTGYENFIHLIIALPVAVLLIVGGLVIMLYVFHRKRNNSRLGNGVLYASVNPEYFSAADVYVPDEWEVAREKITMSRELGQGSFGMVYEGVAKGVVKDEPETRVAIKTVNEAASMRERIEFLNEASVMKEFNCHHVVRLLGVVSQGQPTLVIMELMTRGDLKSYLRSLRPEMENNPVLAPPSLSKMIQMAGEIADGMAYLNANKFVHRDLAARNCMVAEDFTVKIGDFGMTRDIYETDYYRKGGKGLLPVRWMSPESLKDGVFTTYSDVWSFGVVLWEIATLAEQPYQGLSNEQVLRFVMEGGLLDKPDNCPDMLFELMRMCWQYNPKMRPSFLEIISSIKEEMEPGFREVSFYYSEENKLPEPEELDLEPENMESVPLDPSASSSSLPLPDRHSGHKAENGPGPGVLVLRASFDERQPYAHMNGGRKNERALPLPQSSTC

[10] = target: Casein kinase I isoform delta (Homo sapiens) (UniProt P48730); test: Inhibition of human CK1d using KRRRAL[pS]VASLPGL as substrate at 1 uM in presence of 32P-ATP by Hotspot assay relative to control; values are per cent of control
Casein kinase I isoform delta (Homo sapiens), sequence (P48730 whole entry, looked up, canonical isoform): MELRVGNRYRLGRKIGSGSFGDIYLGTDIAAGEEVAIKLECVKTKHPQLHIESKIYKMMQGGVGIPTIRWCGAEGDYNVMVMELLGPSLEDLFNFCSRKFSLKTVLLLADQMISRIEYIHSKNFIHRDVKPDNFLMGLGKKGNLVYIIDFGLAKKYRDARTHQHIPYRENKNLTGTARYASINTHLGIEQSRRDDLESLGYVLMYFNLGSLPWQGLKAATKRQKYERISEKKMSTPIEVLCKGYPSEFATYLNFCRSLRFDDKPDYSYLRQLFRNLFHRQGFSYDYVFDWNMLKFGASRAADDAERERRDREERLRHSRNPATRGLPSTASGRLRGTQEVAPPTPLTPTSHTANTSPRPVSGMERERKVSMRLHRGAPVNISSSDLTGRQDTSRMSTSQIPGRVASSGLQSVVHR

SMILES	residual activity [1] [%]	residual activity [2] [%]	residual activity [3] [%]	residual activity [4] [%]	residual activity [5] [%]	residual activity [6] [%]	residual activity [7] [%]	residual activity [8] [%]	residual activity [9] [%]	residual activity [10] [%]
CNC(=O)c1ccc2c(c1)ncn2-c1ccc(CC(=O)OC(C)(C)C)cc1	91.8	87.7	92.4	95	98.3	96.4	96.3	102	97.6	101
Cc1cc(-c2cnc(N)c3c(-c4ccc5scnc5c4)csc23)n(C)n1	68.1	87.7	100	96.1	100	91.9	82.4	101	101	84.6
CC(C)S(=O)(=O)c1ccc2nccc(Nc3ccc4scnc4c3)c2c1	88.3	92.3	101	96.3	104	101	104	100	100	104

— ChEMBL document CHEMBL5649166, “RIP3 induces apoptosis independent of pronecrotic kinase activity” (Mol Cell, 2014)
